“And” between values parts separate entries of the source, which are not always exact repeats. Identical values can stand only once.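 Values below derive from 48-hour exposures of cells grown in 96-well plates, with endpoints linearly interpolated between the two concentrations bracketing the appropriate inhibition level. The concentration for 50% growth inhibition is given as GI50. The concentration for full growth arrest is given as TGI.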
What was measured:
Test in all cases: NCI-60 cell line screen, 48 h
SNB-75 CNS = test system: SNB-75 CNS
SR leukemia = test system: SR leukemia
SK-MEL-5 melanoma = test system: SK-MEL-5 melanoma
HT29 colon = test system: HT29 colon
UACC-62 melanoma = test system: UACC-62 melanoma
CCRF-CEM leukemia = test system: CCRF-CEM leukemia
TK-10 renal = test system: TK-10 renal
NCI-H23 lung = test system: NCI-H23 lung
SW-620 colon = test system: SW-620 colon
LOX IMVI melanoma = test system: LOX IMVI melanoma

| SMILES | GI50 (SNB-75 CNS) | TGI (SNB-75 CNS) | GI50 (SR leukemia) | TGI (SR leukemia) | GI50 (SK-MEL-5 melanoma) | TGI (SK-MEL-5 melanoma) | GI50 (HT29 colon) | TGI (HT29 colon) | GI50 (UACC-62 melanoma) | TGI (UACC-62 melanoma) | GI50 (CCRF-CEM leukemia) | TGI (CCRF-CEM leukemia) | GI50 (TK-10 renal) | TGI (TK-10 renal) | GI50 (NCI-H23 lung) | TGI (NCI-H23 lung) | GI50 (SW-620 colon) | TGI (SW-620 colon) | GI50 (LOX IMVI melanoma) | TGI (LOX IMVI melanoma) |
| --- | --- | --- | --- | --- | --- | --- | --- | --- | --- | --- | --- | --- | --- | --- | --- | --- | --- | --- | --- | --- |
| COc1cc(C(=O)c2c(-c3ccccc3)oc3ccccc23)cc(OC)c1O | 0.231 µM | 2.22 µM | 377 nM | 23.9 µM | 2.57 µM | 12.6 µM | 9.78 µM | > 100 µM | 0.975 µM | 16 µM | 1.71 µM | 14.3 µM | 20.5 µM | > 100 µM | 3.96 µM | 22.6 µM | 0.96 µM | 26.9 µM | 4.33 µM | 21.6 µM |
| O=C(Nc1ccc(-c2nc3ccc(NC(=O)c4ccc(Cl)cc4)cc3[nH]2)cc1)c1ccc(Cl)cc1 | 1.52 µM | 7.93 µM | 769 nM | 4.34 µM | 3.53 µM | 14.4 µM | 2.11 µM | 6.89 µM | 4.21 µM | 16.4 µM | 0.433 µM | 4.41 µM | 2.39 µM | 5.8 µM | 4.63 µM | 16.4 µM | 2.35 µM | 8.46 µM | 1.94 µM | 11.4 µM |
| Cn1cc(/C=C2\C(=O)Nc3cccnc32)c2ccccc21 | > 19.6 µM | > 25 µM | > 25000 nM | > 25 µM | 9.2 µM | > 25 µM | 13.1 µM | > 25 µM | 8.82 µM | > 25 µM | 16 µM | > 25 µM | 12.3 µM | > 25 µM | 10.9 µM | > 25 µM | 12.6 µM | > 25 µM | 7.77 µM | > 25 µM |
| CC(C)(C)c1ccc(C(O)(c2ccc(C(C)(C)C)cc2)c2ccc(C(C)(C)C)cc2)cc1 | – | > 100 µM | – | > 100 µM | – | > 100 µM | – | > 100 µM | – | > 100 µM | – | > 100 µM | – | > 100 µM | – | > 100 µM | – | > 100 µM | – | > 100 µM |
| O=C(O)C(O)C(O)C1[O][Sb][O]C1CO (stereo not given) | > 100 µM | > 100 µM | > 100000 nM | > 100 µM | 27.2 µM and 12.7 µM | > 100 µM and 30.7 µM | > 100 µM | > 100 µM | > 100 µM | > 100 µM | 33.3 µM and 18.9 µM | > 100 µM | > 100 µM | > 100 µM | > 100 µM | > 100 µM | > 100 µM | > 100 µM | > 100 µM | > 100 µM |
| C[P+](C)(CC(F)(F)F)c1ccccc1 | – | > 100 µM | – | > 100 µM | – | > 100 µM | – | > 100 µM | – | > 100 µM | – | > 100 µM | – | > 100 µM | – | > 100 µM | – | > 100 µM | – | > 100 µM |
| Cc1cc(C#Cc2ccccc2)ccc1-n1c(/C=C/c2ccc(O)cc2)nc2ccccc2c1=O | 3.66 µM | 38.4 µM | 2450 nM | 29 µM | 1.77 µM | 3.83 µM | 3.33 µM | 16.6 µM | 3.48 µM | 21.7 µM | 3.26 µM | > 100 µM | 2.62 µM | 32.8 µM | 3.62 µM | > 100 µM | 4.08 µM | > 100 µM | 2.78 µM | 10.8 µM |
| Fc1ccc(-c2c(-c3ccncc3)n(CCN3CCOCC3)c3cccnc23)cc1 | > 25 µM | > 25 µM | > 25000 nM | > 25 µM | > 25 µM | > 25 µM | > 25 µM | > 25 µM | > 25 µM | > 25 µM | > 25 µM | > 25 µM | > 25 µM | > 25 µM | > 25 µM | > 25 µM | > 25 µM | > 25 µM | > 25 µM | > 25 µM |
| COc1ccc2c3c([nH]c2c1)[C@H]1C[C@H]2[C@H](C[C@@H](O)[C@H](OC)[C@H]2C(=O)O)CN1CC3 | – | > 100 µM | – | > 100 µM | – | > 100 µM | – | > 100 µM | – | > 100 µM | – | > 100 µM | – | > 100 µM | – | > 100 µM | – | > 100 µM | – | > 100 µM |

Reference: PubChem BioAssay (NCI)
